Measured values as given in patent US20030215462A1, “Use of UGT inhibitors to increase bioavailability” (priority 2001, published 2003).
Several values for one entry are separate records, joined by “and”; a condition that tells them apart may be missing. Identical values can stand only once. Like-named read-outs stand apart in the source and are kept apart here.

Columns and labels:
Format in all cases: biochemical
[1] = test system: T1, UGT enzymes of human liver microsomes; test: Inhibition of 7-HFC glucuronidation in human liver microsomes; conditions: 7-HFC 50 μM, human liver microsomes 100 μg/ml, 15 min
T1 construct: percentage of control metabolism, 7-HFC glucuronidation; percentage of control metabolism, 7-HFC glucuronidation

[2] = test system: UGT enzymes of human liver microsomes; test: Inhibition of raloxifene glucuronidation (G1, G2) in human liver microsomes
Excerpt: Compounds were eluted using a binary solvent gradient system. […] Solvent B was methanol. […] Detection was at 280 nm.

[3] = target: T2, UGT enzymes of human liver microsomes (Homo sapiens, UniProt P16662); test: Inhibition of zidovudine glucuronidation in human liver microsomes; conditions: liver lot 062101
T2 construct: residual metabolism (percentage of control), zidovudine glucuronidation; other: liver lot 062101; residual metabolism (percentage of control), zidovudine glucuronidation; residual metabolism (percentage of control)
T2 sequence (P16662 1-529): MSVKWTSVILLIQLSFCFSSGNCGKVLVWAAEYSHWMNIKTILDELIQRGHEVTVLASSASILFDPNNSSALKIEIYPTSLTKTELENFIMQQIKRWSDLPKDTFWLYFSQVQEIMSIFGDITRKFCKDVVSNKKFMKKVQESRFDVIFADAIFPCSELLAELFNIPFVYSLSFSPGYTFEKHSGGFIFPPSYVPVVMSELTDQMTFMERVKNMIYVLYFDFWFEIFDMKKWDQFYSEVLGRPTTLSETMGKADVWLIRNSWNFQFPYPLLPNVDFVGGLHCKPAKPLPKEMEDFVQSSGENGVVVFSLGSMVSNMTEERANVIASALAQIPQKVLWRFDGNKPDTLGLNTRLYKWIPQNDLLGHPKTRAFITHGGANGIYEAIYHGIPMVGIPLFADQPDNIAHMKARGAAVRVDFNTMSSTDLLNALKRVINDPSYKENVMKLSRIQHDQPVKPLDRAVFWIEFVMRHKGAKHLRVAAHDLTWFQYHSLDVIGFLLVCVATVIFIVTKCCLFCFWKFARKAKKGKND
Description: Compounds were eluted using a binary solvent gradient system where solvent A was dilute phosphoric acid (pH 3) and solvent B was acetonitrile.
Standardized incubations utilized 500 μM zidovudine substrate, 1 mg/ml microsomal protein, 5 mM UDPGA and a 30 min incubation time. […] Int.

Structure (SMILES)	% of control metabolism (SD, n = 3), 7-HFC glucuronidation ([1]; inhibitor 500 μM)	other results
COc1c2ccoc2cc2oc(=O)ccc12 [5-Methoxypsoralen (bergapten)]	97 (1), % and 92 (1) %	–
CCCCCCCCCCCCCCCCCC(=O)OC[C@H](O)[C@H]1OC(=O)C(O)=C1O [Ascorbyl stearate]	73 (2) %	–
O=[N+]([O-])c1ccc(O)cc1 [p-Nitrophenol, reference compound]	62 (1) %	% of control metabolism, raloxifene G1 [2]: 37 (0), 42 (2) % and 49 (2), 51 (2) % and 63 (4), 66 (1) %; % of control metabolism, raloxifene G2 [2]: 37 (0), 42 (2) % and 49 (2), 51 (2) % and 63 (4), 66 (1) %
COc1cc(/C=C/CO)ccc1O [Coniferol]	87 (0) %	–
O=C(O)C=Cc1ccccc1 [Cinnamic acid]	94 (2) %	residual metabolism (percentage of control), zidovudine glucuronidation ([3]; inhibitor 500 μM): 97 (3) %
O=C1O[C@H]([C@@H](O)CO)C(O)=C1O [Ascorbic acid]	99 (1) %	–
COc1ccc2cc([C@H](C)C(=O)[O-])ccc2c1.[Na+] [Naproxen Na salt]	82 (1) %	–
CC(=O)OC1CC(C)CCC1C(C)C (stereo not drawn) [Menthyl acetate]	–	residual metabolism (percentage of control), zidovudine glucuronidation ([3]; inhibitor 200 μM): 64 (2) %; residual metabolism (percentage of control), zidovudine glucuronidation ([3]; inhibitor 500 μM): 35 (1) %; residual metabolism (percentage of control), zidovudine glucuronidation ([3]; inhibitor 1000 μM): 20 (1) %
C[C@]12CC[C@@H]3c4ccc(O)cc4CC[C@H]3[C@@H]1C[C@@H](O)[C@@H]2O [Estriol]	84 (2) %	% of control metabolism (SD, n = 3), raloxifene glucuronide G1 ([2]; G1, inhibitor 500 μM, raloxifene 50 μM, human liver microsomes 250 μg/ml, 15 min): 46 (3) %; % of control metabolism (SD, n = 3), raloxifene glucuronide G2 ([2]; G2, inhibitor 500 μM, raloxifene 50 μM, human liver microsomes 250 μg/ml, 15 min): 60 (3) %
COc1ccc2cc([C@H](C)C(=O)O)ccc2c1 [Naproxen Free Acid]	83 (1) %	% of control metabolism (SD, n = 3), raloxifene glucuronide G1 [2]: 81 (3) %; % of control metabolism (SD, n = 3), raloxifene glucuronide G2 [2]: 78 (2) %
OCC=Cc1ccccc1 [Cinnamyl alcohol]	87 (1) %	–

The next lines start with results.

% of control metabolism (SD, n = 3), 7-HFC glucuronidation ([1]; inhibitor 500 μM)	Structure (SMILES)	other results
86 (2) %	C=CC(C)(O)CCC=C(C)C (stereo not drawn) [Linalool]	residual metabolism (percentage of control), zidovudine glucuronidation ([3]; inhibitor 500 μM): 73 (5) %
78 (2) %	CC1=CC(=O)c2ccccc2C1=O [Vitamin K3]	–
104 (2) %	CCCCCCCCCCCCCCCC(=O)O [Palmitic acid]	–
89 (3) %	CCCCCCCCCCCCCCCC(=O)OCC [Ethyl palmitate]	–
70 (3) %	CCCCCCCCCCCCCCCC(=O)Oc1cccc2ccccc12 [α-Naphthyl palmitate]	–
42 (0), % and 42 (0) %	COc1cc(CO)ccc1O [Vanillyl alcohol]	residual metabolism (percentage of control), zidovudine glucuronidation ([3]; inhibitor 500 μM): 95 (5) %; % of control metabolism (SD, n = 3), 7-HFC glucuronidation ([1]; inhibitor 100 μM): 79 (1) %; % of control metabolism (SD, n = 3), 7-HFC glucuronidation ([1]; inhibitor 200 μM): 67 (3) %
